PMC11304049 (RSC Advances, 2024)
Several values for one entry are separate records, joined by “and”; a condition that tells them apart may be missing. Identical values can stand only once. Like-named read-outs stand apart in the source and are kept apart here.

Key:
[1] = test system: PfW2; settings: read-out: PfW2 IC50; reference drugs, reported earlier; cited from earlier work
[2] = test system: Pf3D7; settings: read-out: Pf3D7 IC50; reference drugs, reported earlier; cited from earlier work
[3] = test system: PfW2; assay: microbe, parasite or virus in culture; assay type: cell-based, Plasmodium falciparum; settings: read-out: PfW2 IC50
[4] = test system: Pf3D7; assay: microbe, parasite or virus in culture; assay type: cell-based; settings: Plasmodium falciparum, 3D7, read-out: Pf3D7 IC50
[5] = Cytotoxicity by MTT assay, Vero cells; assay type: cell-based; settings: African green monkey, Vero cells
[6] = test system: Vero cell; assay: Cytotoxicity by MTT assay, Vero cells; assay type: cell-based; settings: for Selectivity index (SI) with Pf3D7 strain, Vero cell: cytotoxicity IC50 / Pf3D7 IC50; for Selectivity index (SI) with PfW2 strain, Vero cell: cytotoxicity IC50 / PfW2 IC50
[7] = Cytotoxicity by MTT assay, lung cancer A5489 cell line; assay type: cell-based, human; settings: human, lung cancer A5489 cell line
[8] = test system: lung cancer A5489 cell line; assay: as above; assay type: cell-based, human; settings: for Selectivity index (SI) with Pf3D7 strain, A5489: cytotoxicity IC50 / Pf3D7 IC50; for Selectivity index (SI) with PfW2 strain, A5489: cytotoxicity IC50 / PfW2 IC50
[9] = biological target: T1, Falcipain-2 (Plasmodium falciparum, UniProt Q8I6U4); assay: biochemical; settings: Falcipain-2 (IC50 μM), mean of triplicate
T1 sequence (Q8I6U4 244-484): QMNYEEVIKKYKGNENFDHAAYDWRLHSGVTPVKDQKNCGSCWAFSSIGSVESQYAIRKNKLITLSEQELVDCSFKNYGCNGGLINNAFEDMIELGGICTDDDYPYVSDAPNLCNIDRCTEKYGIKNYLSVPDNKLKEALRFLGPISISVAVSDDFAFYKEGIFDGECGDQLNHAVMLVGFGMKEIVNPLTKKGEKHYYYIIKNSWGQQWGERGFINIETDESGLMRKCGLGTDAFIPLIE

[10] = biological target: T2, Falcipain-3 (Plasmodium falciparum, UniProt Q8IIL0); assay: biochemical
T2 sequence (Q8IIL0 243-492): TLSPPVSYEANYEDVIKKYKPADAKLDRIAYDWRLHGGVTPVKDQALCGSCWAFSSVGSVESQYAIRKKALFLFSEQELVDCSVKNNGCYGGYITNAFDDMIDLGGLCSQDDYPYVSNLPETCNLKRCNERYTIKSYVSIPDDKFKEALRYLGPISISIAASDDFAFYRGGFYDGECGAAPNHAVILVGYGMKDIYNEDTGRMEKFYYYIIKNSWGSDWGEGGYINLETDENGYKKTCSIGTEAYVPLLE

[11] = test system: early ring stage 3D7 parasite of P. falciparum; assay: Impact on parasite growth and morphology; assay type: cell-based, Plasmodium falciparum; settings: ring-stage parasites, 3 × IC50 concentration, smears after 24 and 48 hours

In the case of `CCN(CC)CCCC(C)Nc1ccnc2cc(Cl)ccc12` (stereo not drawn) [CQ, Chloroquine], the IC50 [1] is listed as 0.051 ± 0.001 µM and the IC50 [2] is listed as 0.018 ± 0.002 µM.
In the case of `CCc1nc(N)nc(N)c1-c1ccc(Cl)cc1` [PYR, pyrimethamine], the IC50 [1] is given as 129 ± 11.3 µM and the IC50 [2] is given as 0.015 ± 0.0002 µM.
For `O=C1CC2(CCN(c3cc(N4CCN(S(=O)(=O)c5ccc([N+](=O)[O-])cc5)CC4)ncn3)CC2)Oc2ccccc21` [SZ1, 1′-(6-(4-((4-Nitrophenyl)sulfonyl)piperazin-1-yl)pyrimidin-4-yl)spiro[chromane-2,4′-piperidin]-4-one], the IC50 ([3]; Plasmodium falciparum) was greater than 14 µM, the IC50 [3] was greater than 15 µM and the IC50 [4] was 14.8 ± 0.24 µM.
For `O=C1CC2(CCN(c3cc(N4CCN(S(=O)(=O)c5ccccc5[N+](=O)[O-])CC4)ncn3)CC2)Oc2ccccc21` [SZ2, 1′-(6-(4-((2-Nitrophenyl)sulfonyl)piperazin-1-yl)pyrimidin-4-yl)spiro [chromane-2,4′-piperidin]-4-one], the IC50 ([3]; Plasmodium falciparum) was greater than 14 µM, the IC50 [3] was greater than 15 µM and the IC50 [4] was 18.1 ± 0.43 µM.
Work on `O=C1CC2(CCN(c3cc(N4CCN(S(=O)(=O)c5ccc6ccccc6c5)CC4)ncn3)CC2)Oc2ccccc21` [SZ3, 1′-(6-(4-(Naphthalen-2-ylsulfonyl)piperazin-1-yl)pyrimidin-4-yl)spiro[chromane-2,4′-piperidin]-4-one] yielded an IC50 ([3]; Plasmodium falciparum) greater than 15 µM and an IC50 [4] of 25.2 ± 0.35 µM.
For `N#Cc1ccc(S(=O)(=O)N2CCN(c3cc(N4CCC5(CC4)CC(=O)c4ccccc4O5)ncn3)CC2)cc1` [SZ4, 4-((4-(6-(4-Oxospiro[chromane-2,4′-piperidin]-1′-yl)pyrimidin-4-yl)piperazin-1-yl)sulfonyl)benzonitrile], the IC50 ([3]; Plasmodium falciparum) was 14.4 ± 0.16 µM and the IC50 [4] was 6.33 ± 0.29 µM.
Molecule `O=C1CC2(CCN(c3cc(N4CCN(S(=O)(=O)c5cccs5)CC4)ncn3)CC2)Oc2ccccc21` [SZ5, 1′-(6-(4-(Thiophen-2-ylsulfonyl)piperazin-1-yl)pyrimidin-4-yl) spiro[chromane-2,4′-piperidin]-4-one] has an IC50 ([3]; Plasmodium falciparum) of 13.3 ± 0.19 µM and an IC50 [4] of 7.45 ± 0.37 µM.
`O=C1CC2(CCN(c3cc(N4CCN(S(=O)(=O)c5cccnc5)CC4)ncn3)CC2)Oc2ccccc21` [SZ7, 1′-(6-(4-(Pyridin-3-ylsulfonyl)piperazin-1-yl)pyrimidin-4-yl)spiro[chromane-2,4′-piperidin]-4-one] gave an IC50 ([3]; Plasmodium falciparum) of 5.64 ± 0.18 µM and an IC50 [4] of 7.97 ± 0.33 µM.
With `O=C1CC2(CCN(c3cc(N4CCN(S(=O)(=O)c5ccccc5F)CC4)ncn3)CC2)Oc2ccccc21` [SZ8, 1′-(6-(4-((2-Fluorophenyl)sulfonyl)piperazin-1-yl)pyrimidin-4-yl)spiro[chromane-2,4′-piperidin]-4-one] the IC50 ([3]; Plasmodium falciparum) was 8.12 ± 0.37 µM and the IC50 [4] was 5.61 ± 0.42 µM.
In the case of `O=C1CC2(CCN(c3cc(N4CCN(S(=O)(=O)c5ccc(F)cc5)CC4)ncn3)CC2)Oc2ccccc21` [SZ9, 1′-(6-(4-((4-Fluorophenyl)sulfonyl)piperazin-1-yl)pyrimidin-4-yl)spiro[chromane-2,4′-piperidin]-4-one], the IC50 at 72 h [5] is reported as greater than 1000 µM, the “Selectivity index (SI) with Pf3D7 strain, Vero cell” value [6] is reported as 310.55 and the “Selectivity index (SI) with PfW2 strain, Vero cell” value [6] is reported as 257.06. The IC50 at 24 h [7] was 78.5 ± 2.76 µM, the “Selectivity index (SI) with Pf3D7 strain, A5489” value [8] was 24.36 and the “Selectivity index (SI) with PfW2 strain, A5489” value [8] was 20.17. The IC50 [9] was 5.4 µM and 4.9 µM, the IC50 [10] was 6.3 ± 1.2 µM and the “Effect on erythrocytic growth of the parasite” value (“Effect on erythrocytic growth” for short) [11] was “stopped at the early trophozoite stage”. It also gave an IC50 ([3]; Plasmodium falciparum) of 3.89 ± 0.23 µM and an IC50 [4] of 3.22 ± 0.07 µM.
For `O=C1CC2(CCN(c3cc(N4CCN(S(=O)(=O)c5cc(F)cc(F)c5)CC4)ncn3)CC2)Oc2ccccc21` [SZ10, 1′-(6-(4-((3,5-Difluorophenyl)sulfonyl)piperazin-1-yl)pyrimidin-4-yl) spiro [chromane-2,4′-piperidin]-4-one], the IC50 at 72 h [5] was greater than 1000 µM, the “Selectivity index (SI) with Pf3D7 strain, Vero cell” value [6] was 219.79 and the “Selectivity index (SI) with PfW2 strain, Vero cell” value [6] was 149.92. For the same molecule, the IC50 at 24 h [7] was 122 ± 3.39 µM, the “Selectivity index (SI) with Pf3D7 strain, A5489” value [8] was 26.91 and the “Selectivity index (SI) with PfW2 strain, A5489” value [8] was 18.35. For the same molecule, the IC50 [9] was 7.2 ± 1.8 µM, the IC50 [10] was 8.8 ± 1.5 µM and the “Effect on erythrocytic growth” value [11] was “stopped at the early trophozoite stage”. For the same molecule, the IC50 ([3]; Plasmodium falciparum) was 6.67 ± 0.16 µM and the IC50 [4] was 4.55 ± 0.34 µM.
For `O=C1CC2(CCN(c3cc(N4CCN(S(=O)(=O)c5ccc(F)c(F)c5)CC4)ncn3)CC2)Oc2ccccc21` [SZ11, 1′-(6-(4-((3,4-Difluorophenyl)sulfonyl)piperazin-1-yl)pyrimidin-4-yl)spiro [chromane-2,4′-piperidin]-4-one], the IC50 at 72 h [5] was greater than 1000 µM, the “Selectivity index (SI) with Pf3D7 strain, Vero cell” value [6] was 255.10 and the “Selectivity index (SI) with PfW2 strain, Vero cell” value [6] was 179.21. The IC50 at 24 h [7] was 94.2 ± 2.97 µM, the “Selectivity index (SI) with Pf3D7 strain, A5489” value [8] was 24.01 and the “Selectivity index (SI) with PfW2 strain, A5489” value [8] was 16.87. For the same molecule, the IC50 [9] was 6.5 ± 1.6 µM, the IC50 [10] was 8 ± 1.4 µM and the “Effect on erythrocytic growth” value [11] was “stopped at the early trophozoite stage”. It also gave an IC50 ([3]; Plasmodium falciparum) of 5.58 ± 0.19 µM and an IC50 [4] of 3.92 ± 0.25 µM.
Work on `Cc1noc(C)c1S(=O)(=O)N1CCN(c2cc(N3CCC4(CC3)CC(=O)c3ccccc3O4)ncn2)CC1` [SZ12, 1′-(6-(4-((3,5-Dimethylisoxazol-4-yl)sulfonyl)piperazin-1-yl)pyrimidin-4-yl) spiro[chromane-2,4′-piperidin]-4-one] yielded an IC50 ([3]; Plasmodium falciparum) greater than 15 µM and an IC50 [4] of 8.46 ± 0.28 µM.
`O=C1CC2(CCN(c3cc(N4CCN(S(=O)(=O)N5CCOCC5)CC4)ncn3)CC2)Oc2ccccc21` [SZ13, 1′-(6-(4-(Morpholinosulfonyl)piperazin-1-yl)pyrimidin-4-yl) spiro[chromane-2,4′-piperidin]-4-one] gave an IC50 ([3]; Plasmodium falciparum) greater than 15 µM and an IC50 [4] of 22.2 ± 0.36 µM.
With `O=C1CC2(CCN(c3cc(N4CCN(S(=O)(=O)c5cccc(C(F)(F)F)c5)CC4)ncn3)CC2)Oc2ccccc21` [SZ14, 1′-(6-(4-((3-(Trifluoromethyl)phenyl)sulfonyl)piperazin-1-yl)pyrimidin-4-yl)spiro [chromane-2,4′-piperidin]-4-one] the IC50 at 72 h [5] was greater than 1000 µM, the “Selectivity index (SI) with Pf3D7 strain, Vero cell” value [6] was 352.11 and the “Selectivity index (SI) with PfW2 strain, Vero cell” value [6] was 320.51. The IC50 at 24 h [7] was 66.2 ± 2.14 µM, the “Selectivity index (SI) with Pf3D7 strain, A5489” value [8] was 23.31 and the “Selectivity index (SI) with PfW2 strain, A5489” value [8] was 21.22. For the same molecule, the IC50 [9] was 4.1 ± 1.1 µM, the IC50 [10] was 5.4 ± 0.7 µM and the “Effect on erythrocytic growth” value [11] was “stopped at the early trophozoite stage”. It also gave an IC50 ([3]; Plasmodium falciparum) of 2.84 µM, an IC50 [3] of 3.12 ± 0.14 µM and an IC50 [4] of 2.84 ± 0.21 µM.
